# Results: US5532227A, “Tetracyclines including non-antimicrobial chemically-modified tetracyclines inhibit excessive glycosylation of different types of collagen and other proteins during diabetes” (The Research Foundation of State University of New York, priority 1994, dated 1996)
# Where two headings read alike, the source gives them in different places.
# What was measured:
# [1] = tested on: streptozotocin-diabetic rats; experiment: Blood glucose concentration of CMT-1-treated diabetic rats (Example I, FIG. 1); type: in vivo, Sprague-Dawley rat; settings: oral gavage, 1-10 mg/day, 21 days
# Description: Each value represents the mean ± S.E.M. for 4 rats per experimental group.
# (§1) Twenty-four adult male Sprague-Dawley rats were weighed (body weight between 350-375 g) and injected through the tail vein with either 0.9% saline (nondiabetic controls, NDC) or with the same solution containing streptozotocin ([…] body weight) to induce diabetes. The diabetic rats were distributed into five experimental groups (n=4 rats per group) and daily administered by oral gavage either 0, 1, 2, 5 or 10 mg of CMT-1 (4-dedimethylaminotetracycline, a chemically-modified non-antimicrobial tetracycline) suspended in 2% carboxymethylcellulose (CMC) for 21 days. The non-diabetic control rats were gavaged with the carrier alone (2% CMC). Urine glucose levels were measured weekly with Tes-Tape (Eli Lily, Inc., Indianapolis, Ind.).
# On the 21st day, the rats were weighed and anesthetized with halothane (Halocarbon Laboratories) before blood samples were collected for serum glucose (Sigma glucose oxidase kit, St. Louis, Mo.) and CMT-1 determinations. […]
# (§2) The data were subject to statistical analysis. The standard error of the mean (S.E.M) was calculated from the standard deviation. The statistical significance between the groups were determined by analysis of variance while the significance of differences between groups was calculated by Tukey's test.
# [2] = type: in vivo, Sprague-Dawley rat; settings: for Serum CMT-1 Conc.: 21 days, mean of 4 rats ± S.E.M.; for serum concentration for individual rats: individual rats (data not shown), 30240 min
# Experimental: as §1
# On the 21st day, the rats were weighed and anesthetized with halothane (Halocarbon Laboratories) before blood samples were collected for serum glucose (Sigma glucose oxidase kit, St. Louis, Mo.) and CMT-1 determinations. The rats were then killed by exsanguination and the skin from the entire torso was dissected, weighed, and minced as described by Schneir et al., Diabetes 31:426 (1982).
# The extraction and HPLC determination of the concentration of CMT-1 in rat serum was carried out as described by Yu et al., Biochem. Med. & Metabolic Biol. 47:10-20 (1992).
# Serum CMT-1 concentration was assayed using the HPLC technique described by Yu et al., BioChem. Med. & Metabolic Biol. 47: 10-20 (1992). […].
# skin collagen [3] = experiment: Solubility of skin collagen in neutral salt and dilute acid, CMT-1 (Example I, FIGS. 2 and 3); type: in vivo, Sprague-Dawley rat; settings: for increase of collagen solubility in neutral salt solutions / increase of collagen solubility in dilute acid solutions: vs untreated diabetics, 4° C.
# Experimental: as §1
# Skin samples were examined for collagen solubility using the techniques described previously (Golub et al., J. Periodont. Res. 12:402 (1977), Golub et al., Biochim. Biophys. Acta 534:73 (1978)) with some modifications. Except where indicated, all steps were carried out at 4° C.
# Briefly, for the preparation of neutral salt-soluble collagen, minced rat skin was extracted with Tris-HCl buffer (pH 7.4) for 2 days followed by centrifugation at 11,000×g for 20 min. The pellet was subjected to an additional extraction for 18 hr and centrifuged as described above. Both supernatants were then combined and dialyzed exhaustively against 3% acetic acid for 2 days.
# For the preparation of acid-soluble collagen, the pellet was further extracted with 3% acetic acid as described for the neutral salt extraction. The neutral salt and dilute acid extracts were dried with a rotatory evaporator at 60° C. under vacuum.
# Following acid hydrolysis, the dried samples from the two extractions were used for neutral salt- and acid-soluble collagen determinations, while the pellet was used to determine the amount of insoluble collagen.
# The amount of collagen in the three different skin fractions was also estimated. In particular, aliquots of the hydrolysates were repeatedly evaporated and reconstituted with distilled water to remove the hydrochloric acid. After removal of hydrochloric acid, the aliquots Were colorimetrically analyzed for hydroxyproline, an amino acid "marker" of collagen.
# as §2
# [4] = tested on: streptozotocin-diabetic rats; experiment: Proteinuria: urine protein excretion in diabetic rats (Example III, FIG. 4); type: in vivo, rat; settings: recent experiments, data not shown; Golub et al. 1992 cited
# Experimental: Example III was carried out to determine the effect of tetracycline therapy on proteinuria, a parameter of renal damage, in diabetic rats.
# (§3) Streptozotocin-diabetic rats were treated by the daily oral administration of 20 mg minocycline/rat/day over a 4-week period. At the end of the protocol, 24-hour urines were collected to measure protein excretion.
# [5] = tested on: streptozotocin-diabetic rats; experiment: Other signs of diabetes (hyperglycemia, glucosuria, polyuria) in diabetic rats (Example III); type: in vivo, rat
# Experimental: as §3
# serum protein = experiment: Glycosylated serum proteins in diabetic rats (Example IV, FIG. 5); type: in vivo, Sprague-Dawley rat; settings: 5 mg daily oral gavage, 21 days; effect p<0.05
# Description: (Control vs. Diabetic p<0.01, Diabetic vs. Diabetic treated with Doxycycline p<0.05, Diabetic vs. Diabetic treated with CMT-1 (4-dedimethyiaminotetracycline) p<0.05).
# (§4) Sixteen adult male sprague-Dawley rats, each weighing approximately 350 grams, were divided into four groups 0f four animals per group.
# skin collagen [6] = experiment: Glycosylation of skin collagen in diabetic rats, anthrone method (Example IV, FIG. 6); type: in vivo, Sprague-Dawley rat; settings: 5 mg daily oral gavage, 21 days; effect p<0.05
# Experimental: as §4
# In addition, the entire skin was dissected from each rat. Samples containing 100mg of each skin were suspended in a Tris-HCl buffer containing 5mM CaCl2 and chromatographically-purified bacterial collagenase and incubated at 37° C. for 4 hours. Following incubation all samples were centrifugated at 35,000×G and the supernatants containing the skin collagen fragments were collected. The skin digest supernatants were analyzed for (1) carbohydrate-attached-to-collagen by the anthrone method, as described by Halhoul and Kleinberg ([…]) Anal. Biochem. 50: 337-343 and (2) total protein using the BioRad Assay, BioRad Chemical Division, Richmond, Calif.
# skin collagen [7] = experiment: Glycosylation of diabetic rat skin collagen (Example V, Table IV); type: in vivo, Sprague-Dawley rat; settings: 5 mg daily oral gavage, 21 days
# Experimental: All animals were weighed weekly.
# The subcutaneous muscle layer was removed leaving essentially the dermis. The dermis (skin connective tissue) samples were minced, then homogenized in phosphate buffered saline (4° C.). Following centrifugation (at 9000 rpm, 4° C., 30 min.) of the homogenates, the supernatants were discarded. The pellets were repeatedly washed, then resuspended and extracted at 4° C. overnight in chloroform/methanol to remove lipids. The de-lipidized tissue samples were then washed in 100% methanol, then in 50% methanol. Following the methanol washes, the samples were washed with HEPES buffer (pH 7.4). The skin connective tissue samples (100 mg of each sample) were incubated at 37° C. (24 hours) with chromatographically-purified bacterial collagenase. After 24 hours the reaction mixture was centrifuged at 7000 rpm, room temperature for 30 minutes. Following centrifugation, the supernatants containing the digested collagen were collected. Aliquots of the supernatants were analyzed for glycosylated collagen using a modification of the Isolab Glyco-PROBE™ GSP assay kit. The assay is designed to measure glucose bound to protein which was then converted by Amadori rearrangement to fructosamine. For purposes of the present invention, the sample total protein was increased to compensate for low levels of glycosylated collagen compared to glycosylated serum proteins.
smiles,measurement,setting,value
"CC1(O)c2cccc(O)c2C(=O)C2=C(O)C3(O)C(=O)C(C(N)=O)=C(O)CC3CC21 (stereo not drawn) [CMT-1, 4-dedimethylaminotetracycline]",severity of hyperglycemia (blood glucose concentration),[1],did not significantly alter the severity of hyperglycemia
same,Serum CMT-1 Conc.,[2]; 1 mg CMT/day oral,0.75 ± 0.04 µg/mL
same,serum concentration for individual rats,[2]; 1 mg oral dose,600 ng/mL
same,Serum CMT-1 Conc.,[2]; 2 mg CMT/day oral,1.75 ± 0.05 µg/mL
same,Serum CMT-1 Conc.,[2]; 5 mg CMT/day oral,3.90 ± 0.16 µg/mL
same,Serum CMT-1 Conc.,[2]; 10 mg CMT/day oral,5.80 ± 0.25 µg/mL
same,serum concentration for individual rats,[2]; 10 mg oral dose,6500 ng/mL
same,increase of collagen solubility in neutral salt solutions,skin collagen [3]; 1 mg CMT/day oral,10%
same,increase of collagen solubility in dilute acid solutions,skin collagen [3]; 1 mg/day oral,18%
same,increase of collagen solubility in dilute acid solutions,skin collagen [3]; 10 mg/day oral,174%
same,increase of collagen solubility in neutral salt solutions,skin collagen [3]; 10 mg/day oral,91%
same,quality of collagen in the skin (inhibition of excess crosslinking),"skin collagen [3]; diabetic rats, oral",normalized
same,proteinuria in diabetic rats,[4],a reduction in proteinuria
same,"other signs of diabetes including hyperglycemia, glucosuria and polyuria",[5],Neither treatment with minocycline nor CMT-1 reduced the other signs of diabetes
same,fructosamine attached to serum protein (glycosylated serum protein),serum protein,returned both of these parameters of abnormal glycosylation to essentially normal levels
same,glycosylation of skin collagen,skin collagen [6],returned both of these parameters of abnormal glycosylation to essentially normal levels
same,mM Fructosamine/mg protein (Mean ± SE),"skin collagen [7]; NDC 0.027, untreated diabetic 0.377",0.123 ± 0.011 mM Fructosamine/mg protein
same,Reduction of glycosylation in treated diabetics (%),skin collagen [7]; vs untreated diabetic control,67.4%
